These results are taken from US4677069A, “Clam derived proteinases” (priority 1984, dated 1987).

Assay [1] is described as follows: Milk clotting time determination. The format is biochemical. Here is the method: (§1) The clotting activity of milk coagulants was determined according to the method of Berridge, with modifications (1952, The Analyst, 77: 57). To 0.05 ml (unless otherwise mentioned) of milk coagulant placed in a 25-ml test tube was added 10 ml of tempered substrate solution. The substrate solution was 10% reconstituted skim milk powder containing 10 mM CaCl2. The pH of this substrate solution was approximately 6.2. Where indicated, the pH of the substrate solution was adjusted with 0.5 N NaOH or HCl while agitating. The mixture of coagulant and substrate was then incubated at 30° C. water bath unless specifically indicated. Near the expected clotting time, which was determined by a preliminary test, the test tube was tilted ~60° at an interval of 5 seconds. The moment of the first flake appearance of the liquid flowing down the tube was recorded as milk clotting time.

For assay [2], the system named is casein. Briefly: Relative ratio of clotting to proteolytic activity, casein. Particulars: 30° C., pH 6.2 of milk clotting assay, calf rennet = 1.00. The format is biochemical. Here is the method:
as §1
(§2) Milk coagulants were assayed for proteolytic activity according to the method described in Example 1.
(§3) The ratio of milk clotting activity to proteolytic activity against hemoglobin is often used to assess the suitability of enzymes as rennet substitute (Green, 1972, supra). Clam rennet had considerably lower ratio of clotting to […] activity at optimum pH of each individual enzyme. […]

In assay [3] the test system is Hemoglobin. Briefly: Relative ratio of clotting to proteolytic activity, hemoglobin. Type of assay: biochemical. Particulars: 30° C., optimum pH of each enzyme (in parentheses), calf rennet = 1.00. Here is the method:
as §1, §2, §3

Assay [4] has as its system Hemoglobin. Particulars: pH 2.0, 37° C., Sigma lot; cited from earlier work.

“Porcine pepsin: two-time crystallized and lyophilized powder of porcine pepsin (Sigma Co.)”: in assay [1] (1/tc vs C, equation 3-3), the “Linear regression X-Intercept (Table 17)” value is recorded as 0.0019 and the “Linear regression Y-Intercept (Table 17)” value is reported as -0.00013. Also, in assay [1] (1/tc vs C, equation 3-3, FIG. 7), the “Linear regression Slope (Table 17)” value is 0.06597. Besides, in assay [1] (clotting time tc vs 1/C, equation 3-2), the “Linear regression Slope (Table 16)” value worked out at 16.5. Further, in assay [1] (milk pH 6.8 or above), the “milk clotting at pH 6.8 or above” value was “unable to clot milk”. For the same substance, in assay [1] (tc vs 1/C, equation 3-2), the “Linear regression X-Intercept (Table 16)” value was 1.9 and the “Linear regression Y-Intercept (Table 16)” value was -8.7. In addition, the “relative ratio of clotting to proteolytic activity, Casein” value in assay [2] came to 0.24. The “relative ratio of clotting to proteolytic activity, Hemoglobin” value in assay [3] was 0.30. In assay [4], the “specification of the pepsin lot” value is 2900 units/mg solid.
